From patent publication US20060216253A1, “Whitening cosmetics containing morus alba extracts” (Time and Cross, Inc., priority 2005, published 2006)

Tests used:
[1] = target: Mushroom Tyrosinase; assay: Inhibitory effects on mushroom tyrosinase (dopachrome, OD490, 15 min); type: biochemical
Experimental: (§1) L-Tyrosine, the substrate for tyrosinase, was dissolved in 50 mM sodium phosphate buffer (pH6.8) to prepare a solution of 0.1 mg/mL L-tyrosine. […] 100 μL of the L-tyrosine solution was introduced into a test tube, and 100 μL of 50 mM sodium phosphate buffer (pH6.8) with or without test samples were added thereto, and then 10 μL of 200 U/mL tyrosinase were mixed and incubated at 37° C. for 15 min.
The amount of dopachrome in the reaction mixture was determined spectrophotmetrically using absorbance measurement at 490 nm.

[2] = target: T1, Murine Tyrosinase (Mus musculus, UniProt P11344); assay: Inhibitory effects on murine tyrosinase prepared from melanoma B-16 cells; type: biochemical; conditions: tyrosinase from melanoma B-16 cells
T1 construct: supernatant was dialyzed against 50 mM sodium phosphate buffer (pH 6.8) and then used as a source of murine tyrosinase; endogenous in cells; host or cells: murine melanoma B-16 cells (Triton X-100 extract, dialysed supernatant)
T1 sequence (P11344 19-533): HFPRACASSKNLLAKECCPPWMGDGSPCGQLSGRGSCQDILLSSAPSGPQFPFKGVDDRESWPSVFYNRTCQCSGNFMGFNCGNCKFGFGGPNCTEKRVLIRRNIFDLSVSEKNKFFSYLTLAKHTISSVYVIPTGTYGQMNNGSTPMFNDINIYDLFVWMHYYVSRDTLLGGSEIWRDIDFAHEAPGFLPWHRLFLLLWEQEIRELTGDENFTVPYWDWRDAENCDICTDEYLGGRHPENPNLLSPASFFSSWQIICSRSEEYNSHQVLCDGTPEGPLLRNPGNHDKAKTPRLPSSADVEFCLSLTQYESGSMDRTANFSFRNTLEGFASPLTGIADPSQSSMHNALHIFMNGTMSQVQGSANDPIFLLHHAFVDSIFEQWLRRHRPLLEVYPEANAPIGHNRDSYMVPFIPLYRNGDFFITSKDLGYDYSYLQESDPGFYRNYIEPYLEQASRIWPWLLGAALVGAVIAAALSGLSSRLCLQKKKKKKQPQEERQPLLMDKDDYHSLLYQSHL
Experimental: Murine tyrosinase was prepared from the melanoma B-16 cell line. Murine melanoma B-16 cells were grown in DMEM (13.4 mg/mL of Dulbecco's modified Eagle's medium, 24 mM NaHCO3, 10 mM HEPES, 143 units/mL of penicillin G potassium, 160 μg/mL of streptomycin sulfate, pH 7.1) containing 10% fetal bovine serum (FBS) with 5% CO2 at 37° C. When the cells were confluent, melanoma cells were removed from culture dishes and washed once with PBS buffer. The cell suspension was centrifuged at 250×g for 10 min at 4° C. The cell pellet was suspended in 0.5 mL of 50 mM sodium phosphate buffer (pH 6.8) containing 0.1 mM phenylmethylsulfonyl fluoride and 0.5% Triton X-100. The cell suspension was sonicated six times for 30 sec each with 1 min intervals and then incubated at 4° C. for 1 hr to solubilize the tyrosinase. After centrifugation at 50,000×g for 20 min at 4° C., supernatant was dialyzed against 50 mM sodium phosphate buffer (pH 6.8) and then used as a source of murine tyrosinase.
As in the mushroom tyrosinase experiment discussed above, the amount of dopachrome in the reaction mixture was determined spectrophotmetrically using absorbance measurement at 490 nm.

[3] = target: T2, Human Tyrosinase (Homo sapiens, UniProt P14679); assay: Inhibitory effects on human tyrosinase prepared from HM3KO human melanoma cells; type: biochemical
T2 construct: endogenous in cells; host or cells: HM3KO human melanoma cells (Triton X-100 extract, dialysed supernatant)
T2 sequence (P14679 19-529): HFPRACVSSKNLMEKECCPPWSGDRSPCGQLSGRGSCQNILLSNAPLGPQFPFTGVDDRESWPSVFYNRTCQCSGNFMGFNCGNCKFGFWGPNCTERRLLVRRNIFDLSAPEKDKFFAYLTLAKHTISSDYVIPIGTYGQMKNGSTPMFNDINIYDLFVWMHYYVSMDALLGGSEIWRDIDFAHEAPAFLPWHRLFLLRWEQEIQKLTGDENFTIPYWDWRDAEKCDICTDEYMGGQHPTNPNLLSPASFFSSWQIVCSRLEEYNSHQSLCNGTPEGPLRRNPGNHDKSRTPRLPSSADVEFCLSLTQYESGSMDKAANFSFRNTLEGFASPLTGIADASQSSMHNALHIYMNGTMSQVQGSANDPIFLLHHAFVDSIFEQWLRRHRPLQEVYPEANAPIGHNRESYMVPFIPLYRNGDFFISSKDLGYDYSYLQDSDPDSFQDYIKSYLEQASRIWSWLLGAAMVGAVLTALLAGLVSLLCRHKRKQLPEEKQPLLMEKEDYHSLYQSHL
Experimental: Human tyrosinase was prepared from the HM3KO human melanoma cell line. HM3KO cells were cultured in modified Eagles medium supplemented with 10% fetal calf serum. Cultured cells were removed from culture dishes and washed once with PBS buffer and centrifuged. The cell pellet was sonicated in 100 mM sodium phosphate buffer (pH6.8) containing 0.1 mM phenylmethylsulfonyl fluoride (PMSF) and 1% Triton X-100, incubated in ice for 1 hr to solubilize the tyrosinase, and centrifuged. The supernatant was dialyzed against 50 mM sodium phosphate buffer (pH 6.8) and then used as the source of human tyrosinase for use in our inhibition assays.
As in the mushroom and murine tyrosinase experiments discussed above, the amount of dopachrome in the reaction mixture was determined spectrophotmetrically using absorbance measurement at 490 nm.

[4] = test system: murine melanoma B16 cells; assay: Melanin production in murine melanoma B-16 cells; type: cell-based; conditions: for Melanin production (%): B16 cells, 3 days
Experimental: The melanoma cell line was grown in DMEM culture medium containing 4.5 g of glucose/l, 10% fetal bovine serum and 1% antibiotic agent and cultivated at 37° C. under a condition of 5% CO2. The cell suspension was inoculated in a 50 mL T-flask (3×10^5 cells/mL) and the cells were allowed to completely adhere to the plate for 24 hr. Then, test samples diluted in DMEM medium at concentrations of 1, 5, 10, 50, and 100 μg/mL were added to the cultivated cells, and the mixture was cultivated at 5% CO2 and 37° C. for 3 days. After cultivation, culture medium was thoroughly removed and the cells were isolated via trypsin treatment. The suspensions were then centrifuged for 5 min to collect cells. The obtained cells were treated with 5% trichloroacetic acid (TCA), stirred and centrifuged. The precipitated melanin was washed with phosphate buffered saline (PBS), and treated with 1 N NaOH to dissolve the melanin therein. Absorbance at 475 nm was measured. Melanin concentration was determined from a standard concentration curve of synthetic melanin (SIGMA Co., USA).

[5] = test system: melan-a cell line; assay: Melanin production in melan-a cell line; type: cell-based; conditions: melan-a cells; for Melanin production (%): 72 hr
Experimental: Melan-a cells were grown in 10 mL of RPMI 1640 medium supplemented with antibiotics, 10% fetal bovine serum (FBS), and 20 nM TPA. The cell suspension was inoculated in a 24-well plate (10^5 cells/mL) and the cells were allowed to completely adhere to the plate for 24 hr. Test samples dissolved in DMSO were added to the plate and incubated at 37° C. for 72 hr in a CO2 incubator. The culture medium was then thoroughly removed and the cells were isolated through trypsin treatment. The suspensions were then centrifuged for 5 min to collect cells, which were then treated with 5% trichloroacetic acid (TCA), stirred and centrifuged to precipitate the melanin. Melanin was washed with PBS and dissolved in 1 N NaOH. Absorbance at 475 nm was measured. Melanin concentration was determined from a standard concentration curve of synthetic melanin (SIGMA Co., USA).

[6] = test system: Mushroom Tyrosinase; assay: Extended duration of mushroom tyrosinase inhibition (up to 24 hours); type: biochemical
Experimental: as §1
Using the experimental conditions described in the Mushroom Tyrosinase experiment described above, the reaction mixtures, containing various concentrations from 1 μg/mL to 50 μg/mL of the agents assayed, were incubated at 37° C. and spectrophotometric measurements of dopachrome were made at time intervals of up to 24 hours.

[7] = test system: tyrosinase mRNA; assay: RT-PCR analysis of tyrosinase mRNA in murine melanoma B-16 cells; type: cell-based; conditions: FIG. 5
Experimental: To elucidate the mechanism by which Morus alba extract and mulberroside A exerts its effect, RT-PCR analysis was performed. mRNA from cultured murine melanoma B-16 cells were isolated using a Promega polytract system 1000 mRNA isolation kit. Approximately 80 to 100 μg of mRNA was isolated from 10^8 cells. We synthesized the 3′ primer 5′[…]3′ (nucleotides 197-216 from the ATG start codon) and the 5′ primer 5′[…]3′ (nucleotides 669-688 from the ATG start codon) for use in the RT-PCR analysis of tyrosinase mRNA.
This mixture was incubated for 1 minute at 94° C., then for 30 seconds at 55° C. and finally for 10 minutes at 72° C.
For PCR amplification of cDNA, 80 μL of a PCR mixture containing 8 μL of 10× chelating buffer, 1 mM MgCl2 and 50 pmole of 5′ primer was added to the reverse transcription reaction mixture. DNA amplification was performed on a Perkin Elmer Gene Amp PCR system 2400 thermal cycler. The PCR cycle conditions included melting for 30 sec at 94° C., annealing for 30 sec at 55° C., and extension for 1 min at 72° C. The PCR ran for 28 cycles, and the products (492 bp) were analyzed by 2% agarose gel electrophoresis. As an internal control, mouse β-actin mRNA was also amplified using the mouse β-actin amplimer set (Clontech, USA).

[8] = test system: melanocytes; assay: Microscopic observation of pigmentation of confluent melanocyte monolayer; type: cell-based; conditions: cell line not specified
Excerpt: The pigmentation of a confluent monolayer of melanocytes is visible microscopically, as the cells contain black melanin pigment.

## OC[C@H]1O[C@@H](Oc2cc(O)cc(/C=C/c3ccc(O[C@@H]4O[C@H](CO)[C@@H](O)[C@H](O)[C@H]4O)cc3O)c2)[C@H](O)[C@@H](O)[C@@H]1O [Mulberroside A, mulberroside A]
[1]; 37° C., 15 min, L-tyrosine substrate
  IC50: 9.5 µM
[1]; FIGS. 1 and 2
  inhibitory effect on mushroom tyrosinase (in words): the most potent inhibitors of mushroom tyrosinase
[2]
  IC50: 61.5 µM
[3]
  IC50: 76.8 µM
[4]; 1 μg/mL
  Melanin production (%): 98.3 ± 1.0%
[4]; 5 μg/mL
  Melanin production (%): 92.4 ± 2.1%
[4]; 10 μg/mL
  Melanin production (%): 91.2 ± 7.3%
[4]; 50 μg/mL
  Melanin production (%): 59.8 ± 9.0%
[4]; 100 μg/mL
  Melanin production (%): 21.8 ± 5.4%
[4]; melanoma B-16 cells, 100 μg/mL
  reduction in melanin production: 78.2%
[5]; 1 μg/mL
  Melanin production (%): 98.5 ± 7.2%
[5]; 5 μg/mL
  Melanin production (%): 93.6 ± 4.8%
[5]; 10 μg/mL
  Melanin production (%): 92.8 ± 6.5%
[5]; 50 μg/mL
  Melanin production (%): 61.2 ± 8.0%
[5]; 100 μg/mL
  reduction in melanin production: 76.3%
  Melanin production (%): 23.7 ± 3.8%
[6]; from IC50 values after 24 hours incubation
  fold stronger inhibitory effect on tyrosinase activity than kojic acid: 12 fold
[6]; read-out: IC50 for tyrosinase inhibition after 24 hours incubation, 24 hours incubation
  IC50: 20 µM
[7]
  amount of tyrosinase mRNA: decreased the amount of tyrosinase mRNA in a dose-dependent manner
[8]
  pigmentation of treated cells observed microscopically: Reduced pigmentation
